Patent publication US5681738A, “Use of 10-oxo-trans-8-decenoic acid in mushroom cultivation” (The Penn State Research Foundation, priority 1992, dated 1997)

Experiments:
[1] = Solubility; assay type: physicochemical
[2] = system: separated upper stipes of Agaricus bisporus; assay: Elongation of separated upper stipes on test agar containing ODA, storage at 12° C.; set-up: species or system Agaricus bisporus (hybrid off-white)
Procedure: Four type strains of mushrooms were used: the white, off-white, hybrid white (U3) and hybrid off-white (U1). Mushrooms from each flush were harvested before the veil was broken. Freshly harvested mushrooms were transported within about one hour after harvest to Borland Laboratory and placed in the pilot plant cold room (4° C.) for about two hours before sampling. Mushrooms were sorted on the basis of size and appearance. Diseased, damaged, misshapen, veil-opened and extremely large or small mushrooms (>40 or <25 mm in cap diameter) were discarded. Mushrooms of uniform size (25-40 mm) and maturity of the button stage (stage 1, veil intact tightly) were used in this research.
Whole stipes were cut at the lower portions to a length of 7-9 mm to standardize the sample, and marked at the middle of the veil, which is the location where the veil attaches to the stipe, to indicate the upper and lower stipes. The separated stipes contained 2-4 mm of upper stipes and 5-6 nun of lower stipes. For the study using separated upper stipes, mushrooms were dissected directly into upper stipes with a length of 3-5 mm. The separated stipes or upper stipes were put upside down on the test agar containing various mushroom supernatants or ODA concentrations; i.e., the upper sides in contact with the agar surface (FIG. 12). All petri dishes were covered and stored at 12° C. The length of separated stipes and upper stipes was measured using a vernier caliper before and after certain days of storage.
Sterile ODA solutions were aseptically added into the autoclaved agar solutions to achieve the desired final ODA concentrations. The agar solution was then dispensed into dishes, ca 20.8 mL per dish. The level of ODA tested included 10^-4, 10^-5, 10^-6, 10^-7, and 10^-8 M. Mushrooms (hybrid off-white) from 6 different crops were used to study their postharvest growth. In the first 2 experiments, mushroom stipes were measured after 4-day storage at 12° C. In order to prevent stipe deterioration and desiccation of the test agar, in the following experiments mushroom stipes were measured after 3-day storage at 12° C.
The experimental data were subjected to a single classification analysis of variance (AOV) for a completely randomized design (Steele et al., 1980). Fisher's protected least significant difference (LSD) was applied to separate the means. The level of significance used in this research was 0.05.
Since the upper stipe was the major portion which responded to crude preparations of ODA, the following experiment used only upper stipes and applied pure ODA solns to the test agar. Because desiccation of the test agar sometimes occurred after 4 days of storage, in the third replication of this experiment and in subsequent experiments, the stipes were measured after 3 days of storage.

[3] = Dissociation constant by titration with ethanolic NaOH; assay type: physicochemical; conditions: water; aqueous solution; Henderson-Hasselbalch; standard deviation 10^0.04; read-out: dissociation constant (Ka)
Procedure: The purity of ODA was then determined by titration with ethanolic NaOH. The molarity of NaOH was standardized by anhydrous oxalic acid which was dried overnight at 100° C. Three points in the titration curve, with the ratios of [A-] to [HA] equal to 1/3, 1/1 and 3/1, respectively, were chosen for the calculation of the dissociation constant (Ka) of ODA based on the Henderson-Hasselbalch equation (Mathews et al., (1990)): […]

[4] = system: separated stipes of Agaricus bisporus; assay: Elongation of separated stipes on test agar containing mushroom supernatants, 6-day storage at 12° C.; set-up: species or system Agaricus bisporus (off-white); conditions: as a function of added ODA
Procedure: Whole stipes were cut at the lower portions to a length of 7-9 mm to standardize the sample, and marked at the middle of the veil, which is the location where the veil attaches to the stipe, to indicate the upper and lower stipes. The separated stipes contained 2-4 mm of upper stipes and 5-6 nun of lower stipes. […] The length of separated stipes and upper stipes was measured using a vernier caliper before and after certain days of storage.
Sterile mushroom supernatants (25 mL), phosphate buffer and deionized H2 O were added aseptically into 175 mL agar solution prior to dispensing into dishes. […] The concentrations of ODA in the 2% agar were calculated to be 3.4×10^-6, 6.0×10^-5, and 1.2×10^-4 M for treatments 3, 4 and 5. […]

## O=C/C=C/CCCCCCC(=O)O [ODA, 10-oxo-trans-8-decenoic acid]
[1]; acetone, chloroform, ethanol, ethyl ether, methanol, methylene chloride and water
  solubility: soluble
[1]; non-polar solvents such as pentane, hexane, heptane and benzene
  solubility: slightly soluble
[2]; ODA 10^-4 M (18.4 ppm), rep 1, 4-day storage, control 34.3
  % Elongation of upper stipes: 34.8%
[2]; ODA 10^-4 M (18.4 ppm), rep 2, 4-day storage, control 33.3
  % Elongation of upper stipes: 40.1%
[2]; ODA 10^-4 M (18.4 ppm), rep 3, 3-day storage, control 20.5
  % Elongation of upper stipes: 17.7%
[2]; ODA 10^-5 M (1.84 ppm), rep 1, 4-day storage, control 34.3
  % Elongation of upper stipes: 35.5%
[2]; ODA 10^-5 M (1.84 ppm), rep 2, 4-day storage, control 33.3
  % Elongation of upper stipes: 36.5%
[2]; ODA 10^-5 M (1.84 ppm), rep 3, 3-day storage, control 20.5
  % Elongation of upper stipes: 19.3%
[2]; ODA 10^-6 M (0.184 ppm), rep 1, 4-day storage, control 34.3
  % Elongation of upper stipes: 39.9%
[2]; ODA 10^-6 M (0.184 ppm), rep 2, 4-day storage, control 33.3
  % Elongation of upper stipes: 35.7%
[2]; ODA 10^-6 M (0.184 ppm), rep 3, 3-day storage, control 20.5
  % Elongation of upper stipes: 16.6%
[2]; ODA 10^-7 M (0.0184 ppm), rep 1, 4-day storage, control 34.3
  % Elongation of upper stipes: 41.0%
[2]; ODA 10^-7 M (0.0184 ppm), rep 2, 4-day storage, control 33.3
  % Elongation of upper stipes: 42.3%
[2]; ODA 10^-7 M (0.0184 ppm), rep 3, 3-day storage, control 20.5
  % Elongation of upper stipes: 18.1%
[2]; ODA 10^-8 M (0.00184 ppm), rep 1, 4-day storage, control 34.3
  % Elongation of upper stipes: 30.1%
[2]; ODA 10^-8 M (0.00184 ppm), rep 2, 4-day storage, control 33.3
  % Elongation of upper stipes: 39.6%
[2]; ODA 10^-8 M (0.00184 ppm), rep 3, 3-day storage, control 20.5
  % Elongation of upper stipes: 15.8%
[2]; pure ODA, upper stipes only
  elongation of upper stipes among treatments (in words): no differences
[3]
  pKa: 4.68
[4]
  elongation of lower stipes (in words): no differences
